# Data: patent publication US20080009418A1, “Selective Inhibitors” (Alchemia LTD., priority 2004, published 2008)
# What was measured:
# Human neurokinin (NK1) = biological target: T1, Human neurokinin (NK1) (Homo sapiens, UniProt P25103); assay: Radioligand binding, human neurokinin NK1 membranes, filtration, [125I]-Substance P; details: compound at 10 μM, [125I]-Substance P
# T1 construct: purchased Perkin Elmer Biosignal
# In short: (§1)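 Filtration binding on cloned human receptor membranes (1 Unit/well), [125I]-Substance P for NK1 and [3H]-Diprenorphine for KOP, 1 h at room temperature. Filters PEI-presoaked, washed with cold 50 mM Tris-HCl pH 7.4, counted by scintillation; percent inhibition calculated, reference ligand defining non-specific binding.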
# Human μ-opioid (MOP) = biological target: T2, Human μ-opioid (MOP) (Homo sapiens, UniProt P35372); assay: Radioligand binding, human μ-opioid (MOP) membranes, FlashPlate, [3H]-Naloxone; details: compound at 10 μM, [3H]-Naloxone
# T2 construct: purchased Perkin Elmer Biosignal
# In short: (§2)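 Cloned human receptor membranes were coated onto FlashPlate wells and incubated with radioligand and compound (added from a 0.5 mM DMSO daughter plate) for 1 hour at room temperature in the dark. Scintillation counting gave percent inhibition, with DMSO defining total and reference ligand defining non-specific binding.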
# Human opioid (ORL1) = biological target: T3, Human opioid (ORL1) (Homo sapiens, UniProt P41146); assay: Radioligand binding, human opioid ORL1 membranes, FlashPlate, [125I]-Nociceptin; details: compound at 10 μM, [125I]-Nociceptin
# T3 construct: purchased Perkin Elmer Biosignal
# In short: as §2
# [1] = biological target: T4, Human melanin-concentrating hormone (MCH1) (Homo sapiens, UniProt Q99705); assay: Radioligand binding, human melanin-concentrating hormone MCH1 membranes, FlashPlate, [125I]-S36057; details: compound at 10 μM; for A6 radioligand binding, percentage inhibition: [125I]-S36057
# T4 construct: purchased Perkin Elmer Biosignal
# In short: as §2
# Human Melanocortin (MC4) = biological target: T5, Human Melanocortin (MC4) (Homo sapiens, UniProt P32245); assay: Radioligand binding, human melanocortin MC4 membranes, FlashPlate, [125I]-NDP-αMSH; details: compound at 10 μM, [125I]-NDP-αMSH
# T5 construct: purchased Perkin Elmer Biosignal
# In short: as §2
# Human δ-opioid (DOP) = biological target: T6, Human δ-opioid (DOP) (Homo sapiens, UniProt P41143); assay: Radioligand binding, human δ-opioid (DOP) membranes, FlashPlate, [3H]-Bremazocine; details: compound at 10 μM, [3H]-Bremazocine
# T6 construct: purchased Perkin Elmer Biosignal
# In short: as §2
# Mouse urotensin (mUR2) = biological target: T7, Mouse urotensin (mUR2) (Mus musculus, UniProt Q8VIH9); assay: Radioligand binding, mouse urotensin mUR2 membranes, FlashPlate, [125I]-Urotensin II; details: compound at 10 μM, [125I]-Urotensin II
# T7 construct: purchased Perkin Elmer Biosignal
# T7 sequence (Q8VIH9 1-385): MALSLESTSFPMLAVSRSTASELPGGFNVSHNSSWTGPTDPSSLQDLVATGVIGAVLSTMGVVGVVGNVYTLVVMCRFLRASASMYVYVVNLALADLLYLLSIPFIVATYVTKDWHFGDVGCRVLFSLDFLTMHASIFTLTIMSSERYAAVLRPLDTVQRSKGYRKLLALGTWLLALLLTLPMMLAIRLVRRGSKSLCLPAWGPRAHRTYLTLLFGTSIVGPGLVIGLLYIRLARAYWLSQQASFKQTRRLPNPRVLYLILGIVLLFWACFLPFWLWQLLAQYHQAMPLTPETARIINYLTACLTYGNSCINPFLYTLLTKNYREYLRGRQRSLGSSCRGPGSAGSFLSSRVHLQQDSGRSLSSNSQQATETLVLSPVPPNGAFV
# In short: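 Cloned mouse urotensin (mUR2) receptor membranes from Perkin Elmer Biosignal were immobilized in FlashPlate microplates using a proprietary coating. Each well got 19.5 μl buffer, then 0.5 μl of DMSO, reference ligand, or compound. Adding 5 μl of [125I]-Urotensin II, diluted to 5× final concentration in binding buffer, started binding. Plates were sealed with TopSeal-A and incubated 1 hour at room temperature in the dark. Wells were counted for 30 seconds each on a TopCount after a 60-second delay, and percentage inhibition was calculated.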
# Human κ-Opioid (KOP) = biological target: T8, Human κ-Opioid (KOP) (Homo sapiens, UniProt P41145); assay: Radioligand binding, human κ-opioid (KOP) membranes, filtration, [3H]-Diprenorphine; details: compound at 10 μM, [3H]-Diprenorphine
# T8 construct: purchased Perkin Elmer Biosignal
# In short: as §1
# [2] = biological target: T9, Human neuropeptide Y (NPY-Y1) (Homo sapiens, UniProt P25929); assay: Radioligand binding, human neuropeptide Y NPY-Y1 membranes, FlashPlate, [125I]-PYY; details: compound at 10 μM, [125I]-PYY
# T9 construct: purchased Perkin Elmer Biosignal
# T9 sequence (P25929 1-384): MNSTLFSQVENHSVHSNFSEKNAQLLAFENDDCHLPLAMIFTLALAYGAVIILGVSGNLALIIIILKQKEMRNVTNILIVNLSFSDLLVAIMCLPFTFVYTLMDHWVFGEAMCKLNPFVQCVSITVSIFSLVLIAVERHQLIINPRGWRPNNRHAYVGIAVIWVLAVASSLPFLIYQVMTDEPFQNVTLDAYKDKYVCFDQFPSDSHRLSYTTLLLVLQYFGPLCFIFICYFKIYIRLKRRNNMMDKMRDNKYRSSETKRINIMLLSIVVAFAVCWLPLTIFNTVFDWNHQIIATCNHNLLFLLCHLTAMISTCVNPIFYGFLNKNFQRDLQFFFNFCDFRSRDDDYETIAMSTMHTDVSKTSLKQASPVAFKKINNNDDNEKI
# In short: as §2
# Human melanocortin (MC5) = biological target: T10, Human melanocortin (MC5) (Homo sapiens, UniProt P33032); assay: Radioligand binding, human melanocortin MC5 membranes, FlashPlate, [125I]-NDP-αMSH; details: compound at 10 μM, [125I]-NDP-αMSH
# T10 construct: purchased Perkin Elmer Biosignal
# In short: as §2
# Human Melanocortin (MC3) = biological target: T11, Human Melanocortin (MC3) (Homo sapiens, UniProt P41968); assay: Radioligand binding, human melanocortin MC3 membranes, FlashPlate, [125I]-NDP-αMSH; details: compound at 10 μM, [125I]-NDP-αMSH
# T11 construct: purchased Perkin Elmer Biosignal
# In short: as §2
# T11 sequence (P41968 whole entry): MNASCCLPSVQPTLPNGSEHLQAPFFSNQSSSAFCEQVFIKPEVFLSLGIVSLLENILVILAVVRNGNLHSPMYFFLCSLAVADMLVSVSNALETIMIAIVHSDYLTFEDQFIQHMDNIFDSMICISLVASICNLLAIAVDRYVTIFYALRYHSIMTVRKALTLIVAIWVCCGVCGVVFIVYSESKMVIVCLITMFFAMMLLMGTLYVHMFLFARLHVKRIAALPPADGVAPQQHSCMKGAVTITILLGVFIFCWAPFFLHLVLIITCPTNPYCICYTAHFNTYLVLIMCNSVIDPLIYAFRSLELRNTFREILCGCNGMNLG
# T10 sequence (P33032 whole entry): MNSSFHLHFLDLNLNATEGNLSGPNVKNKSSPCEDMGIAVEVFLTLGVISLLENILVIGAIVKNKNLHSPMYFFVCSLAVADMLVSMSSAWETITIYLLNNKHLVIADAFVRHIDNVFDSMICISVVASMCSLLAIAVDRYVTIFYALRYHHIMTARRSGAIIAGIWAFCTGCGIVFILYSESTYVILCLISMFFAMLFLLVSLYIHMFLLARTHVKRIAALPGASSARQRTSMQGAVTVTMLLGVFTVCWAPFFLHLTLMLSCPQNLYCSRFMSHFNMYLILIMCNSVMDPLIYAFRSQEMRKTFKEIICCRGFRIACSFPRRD
# T1 sequence (P25103 whole entry): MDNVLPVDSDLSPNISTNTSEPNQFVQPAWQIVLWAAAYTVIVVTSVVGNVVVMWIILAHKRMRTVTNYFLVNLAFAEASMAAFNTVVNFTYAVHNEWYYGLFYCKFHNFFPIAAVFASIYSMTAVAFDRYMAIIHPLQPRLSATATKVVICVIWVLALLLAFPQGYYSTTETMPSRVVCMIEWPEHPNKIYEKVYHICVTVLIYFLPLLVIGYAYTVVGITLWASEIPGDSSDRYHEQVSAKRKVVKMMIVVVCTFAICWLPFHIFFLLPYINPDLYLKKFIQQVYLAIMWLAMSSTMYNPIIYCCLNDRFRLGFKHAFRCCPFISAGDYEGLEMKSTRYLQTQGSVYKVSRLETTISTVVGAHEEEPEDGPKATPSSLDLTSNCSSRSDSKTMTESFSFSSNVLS
# T5 sequence (P32245 whole entry): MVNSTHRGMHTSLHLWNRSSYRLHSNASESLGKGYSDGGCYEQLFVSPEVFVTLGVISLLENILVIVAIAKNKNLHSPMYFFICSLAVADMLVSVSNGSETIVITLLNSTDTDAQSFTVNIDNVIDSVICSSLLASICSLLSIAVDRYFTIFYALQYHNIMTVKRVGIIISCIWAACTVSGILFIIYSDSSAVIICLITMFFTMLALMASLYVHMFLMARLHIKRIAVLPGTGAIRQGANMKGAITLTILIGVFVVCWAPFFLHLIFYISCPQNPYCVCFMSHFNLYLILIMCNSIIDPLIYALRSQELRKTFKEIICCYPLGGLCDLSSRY
# T8 sequence (P41145 whole entry): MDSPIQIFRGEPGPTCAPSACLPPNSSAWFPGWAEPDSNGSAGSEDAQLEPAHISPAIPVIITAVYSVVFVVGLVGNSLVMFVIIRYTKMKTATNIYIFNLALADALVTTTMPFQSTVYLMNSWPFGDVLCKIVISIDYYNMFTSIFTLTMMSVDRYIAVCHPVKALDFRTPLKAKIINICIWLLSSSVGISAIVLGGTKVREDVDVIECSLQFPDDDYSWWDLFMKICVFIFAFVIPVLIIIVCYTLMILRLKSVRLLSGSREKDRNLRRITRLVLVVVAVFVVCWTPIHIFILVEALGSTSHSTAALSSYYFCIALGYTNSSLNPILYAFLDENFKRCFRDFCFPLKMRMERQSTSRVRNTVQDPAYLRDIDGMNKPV
# T3 sequence (P41146 whole entry): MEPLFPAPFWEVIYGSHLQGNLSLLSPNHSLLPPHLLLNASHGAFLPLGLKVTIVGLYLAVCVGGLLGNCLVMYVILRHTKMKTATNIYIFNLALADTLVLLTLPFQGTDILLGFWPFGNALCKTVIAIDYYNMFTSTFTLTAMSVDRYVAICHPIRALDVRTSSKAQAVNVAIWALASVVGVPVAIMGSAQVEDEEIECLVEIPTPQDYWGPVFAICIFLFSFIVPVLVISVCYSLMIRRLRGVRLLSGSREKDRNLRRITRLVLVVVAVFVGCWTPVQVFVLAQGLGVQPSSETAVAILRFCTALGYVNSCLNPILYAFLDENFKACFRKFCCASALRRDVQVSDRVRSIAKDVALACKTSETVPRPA
# T6 sequence (P41143 whole entry): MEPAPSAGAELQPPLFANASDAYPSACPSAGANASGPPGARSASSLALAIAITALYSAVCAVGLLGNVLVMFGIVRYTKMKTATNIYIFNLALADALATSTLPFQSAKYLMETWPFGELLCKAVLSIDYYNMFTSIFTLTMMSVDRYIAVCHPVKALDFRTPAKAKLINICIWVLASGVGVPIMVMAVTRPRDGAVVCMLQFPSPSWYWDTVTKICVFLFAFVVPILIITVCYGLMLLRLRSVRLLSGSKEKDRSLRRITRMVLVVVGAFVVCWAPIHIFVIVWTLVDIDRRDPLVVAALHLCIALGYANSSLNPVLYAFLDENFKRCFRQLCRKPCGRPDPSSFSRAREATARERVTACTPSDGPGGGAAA
# T4 sequence (Q99705 whole entry): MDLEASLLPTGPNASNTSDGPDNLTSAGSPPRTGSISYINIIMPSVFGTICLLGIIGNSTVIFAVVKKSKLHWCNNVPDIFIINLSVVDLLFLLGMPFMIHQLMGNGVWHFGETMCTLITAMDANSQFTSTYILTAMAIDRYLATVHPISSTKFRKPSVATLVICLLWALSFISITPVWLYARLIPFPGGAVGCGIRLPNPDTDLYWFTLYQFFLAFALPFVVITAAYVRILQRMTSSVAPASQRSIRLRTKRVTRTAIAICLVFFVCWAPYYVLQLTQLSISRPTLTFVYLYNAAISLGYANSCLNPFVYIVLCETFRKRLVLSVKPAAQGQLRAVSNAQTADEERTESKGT
# T2 sequence (P35372 whole entry): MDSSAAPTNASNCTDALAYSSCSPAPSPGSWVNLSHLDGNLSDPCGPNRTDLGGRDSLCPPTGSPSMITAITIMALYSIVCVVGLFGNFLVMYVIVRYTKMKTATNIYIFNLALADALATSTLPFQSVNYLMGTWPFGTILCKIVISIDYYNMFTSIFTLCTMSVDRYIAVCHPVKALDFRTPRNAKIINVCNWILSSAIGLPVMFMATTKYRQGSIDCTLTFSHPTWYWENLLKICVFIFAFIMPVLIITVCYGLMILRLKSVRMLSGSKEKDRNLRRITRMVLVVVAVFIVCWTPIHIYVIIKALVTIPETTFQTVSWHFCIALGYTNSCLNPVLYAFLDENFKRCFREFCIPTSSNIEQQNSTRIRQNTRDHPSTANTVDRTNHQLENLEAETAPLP
SMILES,A8: inhibition of radioligand binding (Human neurokinin (NK1); filtration),A7: inhibition of radioligand binding (Human μ-opioid (MOP); FlashPlate),A10: inhibition of radioligand binding (Human opioid (ORL1); FlashPlate),"A6: inhibition of radioligand binding ([1]; [125I]-S36057, FlashPlate)",A4: inhibition of radioligand binding (Human Melanocortin (MC4); FlashPlate),A1: inhibition of radioligand binding (Human δ-opioid (DOP); FlashPlate),A11: inhibition of radioligand binding (Mouse urotensin (mUR2); FlashPlate),A2: inhibition of radioligand binding (Human κ-Opioid (KOP); filtration),A9: inhibition of radioligand binding ([2]; FlashPlate),A5: inhibition of radioligand binding (Human melanocortin (MC5); FlashPlate),A3: inhibition of radioligand binding (Human Melanocortin (MC3); FlashPlate),"A8 radioligand binding, percentage inhibition (Human neurokinin (NK1))","A7 radioligand binding, percentage inhibition (Human μ-opioid (MOP))","A10 radioligand binding, percentage inhibition (Human opioid (ORL1))","A6 radioligand binding, percentage inhibition [1]","A4 radioligand binding, percentage inhibition (Human Melanocortin (MC4))","A1 radioligand binding, percentage inhibition (Human δ-opioid (DOP))","A11 radioligand binding, percentage inhibition (Mouse urotensin (mUR2))","A2 radioligand binding, percentage inhibition (Human κ-Opioid (KOP))","A9 radioligand binding, percentage inhibition [2]",also measured
COCC1OC(OCc2ccc3ccccc3c2)C(NC(=O)CCCNC(=N)N)C(OCc2ccc(Cl)cc2)C1O (stereo not drawn) [compound 240],+ (“+” indicates greater than 50% inhibition at 10 μM),+ (“+” indicates greater than 50% inhibition at 10 μM),+ (“+” indicates greater than 50% inhibition at 10 μM),+ (“+” indicates greater than 50% inhibition at 10 μM),+ (“+” indicates greater than 50% inhibition at 10 μM),− (“−” indicates less than 50% inhibition at 10 μM),− (“−” indicates less than 50% inhibition at 10 μM),+ (“+” indicates greater than 50% inhibition at 10 μM),− (“−” indicates less than 50% inhibition at 10 μM),+ (“+” indicates greater than 50% inhibition at 10 μM),+ (“+” indicates greater than 50% inhibition at 10 μM),,,,,,,,,,
COCC1OC(OCc2ccccc2)C(NC(=O)CCCN)C(OCc2ccc(-c3ccccc3)cc2)C1O (stereo not drawn) [compound 186],,,,,,,,,,,,+ (“+” indicates greater than 50% inhibition at 10 μM),− (“−” indicates less than 50% inhibition at 10 μM),− (“−” indicates less than 50% inhibition at 10 μM),− (“−” indicates less than 50% inhibition at 10 μM),− (“−” indicates less than 50% inhibition at 10 μM),− (“−” indicates less than 50% inhibition at 10 μM),− (“−” indicates less than 50% inhibition at 10 μM),− (“−” indicates less than 50% inhibition at 10 μM),− (“−” indicates less than 50% inhibition at 10 μM),"A5 radioligand binding, percentage inhibition (Human melanocortin (MC5)): + (“+” indicates greater than 50% inhibition at 10 μM); A3 radioligand binding, percentage inhibition (Human Melanocortin (MC3)): − (“−” indicates less than 50% inhibition at 10 μM)"
COCC1OC(OCCc2ccccc2)C(NC(=O)CCCNC(=N)N)C(OCc2ccc(Cl)cc2)C1O (stereo not drawn) [compound 223],+ (“+” indicates greater than 50% inhibition at 10 μM),− (“−” indicates less than 50% inhibition at 10 μM),− (“−” indicates less than 50% inhibition at 10 μM),+ (“+” indicates greater than 50% inhibition at 10 μM),+ (“+” indicates greater than 50% inhibition at 10 μM),− (“−” indicates less than 50% inhibition at 10 μM),− (“−” indicates less than 50% inhibition at 10 μM),− (“−” indicates less than 50% inhibition at 10 μM),− (“−” indicates less than 50% inhibition at 10 μM),+ (“+” indicates greater than 50% inhibition at 10 μM),− (“−” indicates less than 50% inhibition at 10 μM),,,,,,,,,,
COCC1OC(OCc2ccccc2)C(NC(=O)CCNC(=N)N)C(OCc2ccccc2)C1O (stereo not drawn) [compound 173],,,,,,,,,,,,+ (“+” indicates greater than 50% inhibition at 10 μM),− (“−” indicates less than 50% inhibition at 10 μM),− (“−” indicates less than 50% inhibition at 10 μM),− (“−” indicates less than 50% inhibition at 10 μM),− (“−” indicates less than 50% inhibition at 10 μM),− (“−” indicates less than 50% inhibition at 10 μM),− (“−” indicates less than 50% inhibition at 10 μM),− (“−” indicates less than 50% inhibition at 10 μM),− (“−” indicates less than 50% inhibition at 10 μM),"A5 radioligand binding, percentage inhibition (Human melanocortin (MC5)): − (“−” indicates less than 50% inhibition at 10 μM); A3 radioligand binding, percentage inhibition (Human Melanocortin (MC3)): − (“−” indicates less than 50% inhibition at 10 μM)"
NCCCC(=O)NC1C(OCc2ccc3ccccc3c2)OC(COCc2ccc(Cl)cc2)C(O)C1OCc1ccc(Cl)cc1 (stereo not drawn) [compound 392],,,,,,,,,,,,,,,,,,,,,"A8: inhibition of radioligand binding (Human neurokinin (NK1); human NK1 membranes): + (“+” indicates greater than 50% inhibition at 10 μM); A7: inhibition of radioligand binding (Human μ-opioid (MOP); human MOP membranes, 10 µM): − (“−” indicates less than 50% inhibition at 10 μM); A10: inhibition of radioligand binding (Human opioid (ORL1); human ORL1 membranes, 10 µM): − (“−” indicates less than 50% inhibition at 10 μM); A6: inhibition of radioligand binding ([1]; [125I]-S36057, human MCH1 membranes, 10 µM): − (“−” indicates less than 50% inhibition at 10 μM); A4: inhibition of radioligand binding (Human Melanocortin (MC4); human MC4 membranes): + (“+” indicates greater than 50% inhibition at 10 μM); A1: inhibition of radioligand binding (Human δ-opioid (DOP); human DOP membranes): − (“−” indicates less than 50% inhibition at 10 μM); A11: inhibition of radioligand binding (Mouse urotensin (mUR2); mouse mUR2 membranes): − (“−” indicates less than 50% inhibition at 10 μM); A2: inhibition of radioligand binding (Human κ-Opioid (KOP); human KOP membranes): − (“−” indicates less than 50% inhibition at 10 μM); A9: inhibition of radioligand binding ([2]; human NPY-Y1 membranes): − (“−” indicates less than 50% inhibition at 10 μM); A5: inhibition of radioligand binding (Human melanocortin (MC5); human MC5 membranes): + (“+” indicates greater than 50% inhibition at 10 μM); A3: inhibition of radioligand binding (Human Melanocortin (MC3); human MC3 membranes): + (“+” indicates greater than 50% inhibition at 10 μM)"
CSC1OC(COCc2ccc(-c3ccccc3)cc2)C(O)C(OCc2ccccc2)C1NC(=O)CNC(=N)N (stereo not drawn) [compound 255],+ (“+” indicates greater than 50% inhibition at 10 μM),− (“−” indicates less than 50% inhibition at 10 μM),− (“−” indicates less than 50% inhibition at 10 μM),− (“−” indicates less than 50% inhibition at 10 μM),+ (“+” indicates greater than 50% inhibition at 10 μM),− (“−” indicates less than 50% inhibition at 10 μM),− (“−” indicates less than 50% inhibition at 10 μM),− (“−” indicates less than 50% inhibition at 10 μM),− (“−” indicates less than 50% inhibition at 10 μM),+ (“+” indicates greater than 50% inhibition at 10 μM),− (“−” indicates less than 50% inhibition at 10 μM),,,,,,,,,,
